# Measurements reported in paper PMC10108347, “Heterobifunctional Ligase Recruiters Enable pan-Degradation of Inhibitor of Apoptosis Proteins” (Journal of Medicinal Chemistry, 2023).
# “Also recorded” adds a separate entry of the source. Read-outs that look alike come from different tables or passages of the source.
# Key:
# JJN3 = test: CellTiter-Glo cell viability assay, JJN3; format: cell-based; settings: Homo sapiens
# HEL = test: CellTiter-Glo cell viability assay, HEL; format: cell-based; settings: Homo sapiens
# SUDHL4 = test: CellTiter-Glo cell viability assay, SUDHL4; format: cell-based; settings: Homo sapiens
# DB = test: CellTiter-Glo cell viability assay, DB; format: cell-based; settings: Homo sapiens
# SUDHL6 = test: CellTiter-Glo cell viability assay, SUDHL6; format: cell-based; settings: Homo sapiens
# cIAP1 (BIRC2) = target: T1, cIAP1 (BIRC2) (Homo sapiens, UniProt Q13490); test: diaPASEF quantitative proteomics in MM.1S cells: cIAP1 (BIRC2); format: cell-based; settings: 3 h; for cIAP1 level in global proteomics (in words): 100 nM, diaPASEF
# T1 construct: endogenous in cells; host or cells: MM.1S
# Procedure: (§1) To analyze the proteome-wide degradation selectivity of hetero-PROTACs 9, 25, and 27, a diaPASEF-based mass spectrometry approach was employed.[54] MM.1S cells were treated with 100 nM PROTACs for 3 h. […] Accordingly, global proteomic plots show the mathematically imputed levels of IAP proteins in treatment groups if the corresponding IAP was detected in the control treatment (see also Experimental Section).
# (§2) MM1s cells were treated with DMSO or 0.1 μM of compound for 3 h. The cells were harvested by centrifugation and washed with phosphate-buffered saline before snap-freezing in liquid nitrogen. The cells were lysed by addition of lysis buffer (8 M urea, 50 mM NaCl, 50 mM 4-(2-hydroxyethyl)-1-piperazine-ethanesulfonic acid (EPPS) pH 8.5, protease, and phosphatase inhibitors) and homogenization by bead beating (BioSpec) for three repeats of 30 s at 2400. Bradford assay was used to determine the final protein concentration in the clarified cell lysate. 50 μg of protein for each sample was reduced, alkylated, and precipitated using methanol/chloroform as previously described,[64] and the resulting washed precipitated protein was allowed to air dry. The precipitated protein was resuspended in 4 M urea, 50 mM HEPES pH 7.4, followed by dilution to 1 M urea with the addition of 200 mM EPPS, pH 8. Proteins were first digested with LysC (1:50; enzyme/protein) for 12 h at RT. The LysC digestion was diluted to 0.5 M urea with 200 mM EPPS pH 8, followed by digestion with trypsin (1:50; enzyme/protein) for 6 h at 37 °C. Sample digests were acidified with formic acid to a pH of 2–3 prior to desalting using C18 solid-phase extraction plates (SOLA, Thermo Fisher Scientific). Desalted peptides were dried in a vacuum centrifuge and reconstituted in 0.1% formic acid for LC–MS analysis.
# (§3) Data were collected using a TimsTOF Pro2 (Bruker Daltonics, Bremen, Germany) coupled to a nanoElute LC pump (Bruker Daltonics, Bremen, Germany) via a CaptiveSpray nanoelectrospray source. Peptides were separated on a reversed-phase C18 column (25 cm × 75 μm ID, 1.6 μM, IonOpticks, Australia) containing an integrated captive spray emitter. Peptides were separated using a 50 min gradient of 2–30% buffer B (acetonitrile in 0.1% formic acid) with a flow rate of 250 nL/min and column temperature maintained at 50 °C.
# (§4) Data-Dependent Acquisition (DDA) was performed in the Parallel Accumulation-Serial Fragmentation (PASEF) mode to determine effective ion mobility windows for downstream diaPASEF data collection.[54] The diaPASEF parameters included 100% duty cycle using accumulation and ramp times of 50 ms each, 1 TIMS-MS scan, and 10 PASEF ramps per acquisition cycle. The TIMS-MS survey scan was acquired between 100–1700 m/z and 1/K0 of 0.7–1.3 V × s/cm^2. Precursors with 1–5 charges were selected, and those that reached an intensity threshold of 20,000 arbitrary units were actively excluded for 0.4 min. The quadrupole isolation width was set to 2 m/z for m/z < 700 and 3 m/z for m/z > 800, with the m/z between 700 and 800 m/z being interpolated linearly. The TIMS elution voltages were calibrated linearly with three points (Agilent ESI-L Tuning Mix Ions; 622, 922, 1222 m/z) to determine the reduced ion mobility coefficients (1/K0). To perform diaPASEF, the precursor distribution in the DDA m/z-ion mobility plane was used to design an acquisition scheme for DIA data collection, which included two windows in each 50 ms diaPASEF scan. […]
# XIAP [1] = target: T2, XIAP (Homo sapiens, UniProt P98170); test: diaPASEF quantitative proteomics in MM.1S cells: XIAP; format: cell-based; parameters: endogenous in cells; host or cells: MM.1S; settings: 3 h; for XIAP level in global proteomics (in words): 100 nM, diaPASEF; for logFC XIAP: 0.1 μM, log2 fold change compound vs CTRLs (limma)
# Procedure: as §1, §2, §3
# as §4, with “scan. Data was acquired using 16 of these 25 Da precursor double window scans (creating 32 windows), which covered the diagonal scan line for doubly and triply charged precursors, with singly charged precursors able to be excluded by their position in the m/z-ion mobility plane. These precursor isolation windows were defined between 400–1200 m/z and 1/K0 of 0.7–1.3 V × s/cm^2.” for “scan.”
# XIAP [2] = target: T2, XIAP; test: Immunoblotting (western blot) quantification of XIAP levels in MM.1S cells; parameters: Dmax: dose or concentration left out as unconfirmed
# cIAP1 = cIAP1 (Homo sapiens, UniProt Q13490); test: Immunoblotting (western blot) quantification of cIAP1 levels in MM.1S cells; parameters: Dmax: dose or concentration left out as unconfirmed
# [3] = SI csv, head prints only the cell line, no quantity or unit, values parallel Table 1/S8, read-out: DB
# [4] = MM.1S cells, 16 h, western blot, 0.1 or 1 μM
# [5] = MM1.S, 16 h, read-out: %remaining protein XIAP, MM.1S cells, 16 h treatment at 0.1 μM, normalized to loading control and DMSO
# [6] = MM1.S, 16 h, read-out: %remaining protein cIAP1, MM.1S cells, 16 h treatment at 0.1 μM, normalized to loading control and DMSO
# T2 sequence (P98170 whole entry): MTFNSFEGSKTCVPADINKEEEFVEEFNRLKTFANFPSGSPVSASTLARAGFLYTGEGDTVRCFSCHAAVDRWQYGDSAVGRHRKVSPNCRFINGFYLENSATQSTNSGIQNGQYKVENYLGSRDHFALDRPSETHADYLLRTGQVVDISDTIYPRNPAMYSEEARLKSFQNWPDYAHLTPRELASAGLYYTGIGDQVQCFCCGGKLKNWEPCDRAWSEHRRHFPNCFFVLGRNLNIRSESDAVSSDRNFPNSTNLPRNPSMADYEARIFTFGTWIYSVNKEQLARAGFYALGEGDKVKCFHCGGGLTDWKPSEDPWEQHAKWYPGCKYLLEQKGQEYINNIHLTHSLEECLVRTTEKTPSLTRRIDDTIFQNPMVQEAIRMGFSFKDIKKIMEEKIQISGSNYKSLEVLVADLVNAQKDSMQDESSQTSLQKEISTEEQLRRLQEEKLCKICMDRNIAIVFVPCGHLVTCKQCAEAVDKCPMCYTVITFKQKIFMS
# Sequence of cIAP1 (Q13490 whole entry): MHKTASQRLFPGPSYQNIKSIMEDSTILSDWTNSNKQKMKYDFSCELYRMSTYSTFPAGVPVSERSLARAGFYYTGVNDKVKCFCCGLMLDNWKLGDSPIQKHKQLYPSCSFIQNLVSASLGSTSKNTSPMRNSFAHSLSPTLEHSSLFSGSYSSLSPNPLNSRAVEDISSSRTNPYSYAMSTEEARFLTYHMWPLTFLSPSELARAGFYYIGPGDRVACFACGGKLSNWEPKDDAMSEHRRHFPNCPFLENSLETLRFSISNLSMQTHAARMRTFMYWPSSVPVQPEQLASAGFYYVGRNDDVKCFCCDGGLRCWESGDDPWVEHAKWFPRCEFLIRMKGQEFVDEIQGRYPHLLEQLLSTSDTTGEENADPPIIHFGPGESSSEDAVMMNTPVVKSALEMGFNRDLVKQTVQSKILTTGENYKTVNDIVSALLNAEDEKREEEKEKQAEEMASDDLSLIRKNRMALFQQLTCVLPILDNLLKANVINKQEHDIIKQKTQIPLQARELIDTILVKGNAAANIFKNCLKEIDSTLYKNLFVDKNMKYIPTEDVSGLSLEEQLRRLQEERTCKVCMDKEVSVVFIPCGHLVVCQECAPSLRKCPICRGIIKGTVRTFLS
# T1 sequence (Q13490 whole entry): as above
smiles,measurement,setting,value
"CN[C@@H](C)C(=O)N[C@@H](C(=O)N1CCC[C@H]1C(=O)N[C@@H]1c2ccccc2C[C@@H]1OCC#CC#CCO[C@H]1Cc2ccccc2[C@H]1NC(=O)[C@@H]1CCCN1C(=O)[C@H](NC(=O)[C@H](C)NC)C1CCCCC1)C1CCCCC1 [AZD5582, reference compound]",IC50,"JJN3; JJN-3, SI csv, head prints only the cell line, no quantity or unit, values parallel Table 1/S8, read-out: JJN3",200 nM
same,IC50,"HEL; SI csv, head prints only the cell line, no quantity or unit, values parallel Table 1/S8, read-out: HEL",64 nM
same,IC50,"SUDHL4; SU-DHL-4, SI csv, head prints only the cell line, no quantity or unit, values parallel Table 1/S8, read-out: SUDHL4",1640 nM
same,IC50,DB; [3],73 nM
same,IC50,"SUDHL6; SU-DHL-6, SI csv, head prints only the cell line, no quantity or unit, values parallel Table 1/S8, read-out: SUDHL6",1.5 nM
same,cIAP1 level in global proteomics (in words),cIAP1 (BIRC2),depleted cIAP1 below the detection level
same,XIAP level in global proteomics (in words),XIAP [1],did not cause XIAP degradation
same,XIAP degradation (in words),XIAP [2]; [4],failed to degrade XIAP; also recorded: did not influence XIAP levels even at 1 μM
same,cIAP1 degradation (in words),cIAP1; [4],substantial degradation
"CN[C@@H](C)C(=O)N[C@H](C(=O)N1C[C@@H](Oc2cccc(OCCCCC(=O)N[C@H](C(=O)N3C[C@H](O)C[C@H]3C(=O)N[C@@H](C)c3ccc(-c4scnc4C)cc3)C(C)(C)C)c2)C[C@H]1C(=O)N[C@@H]1CCCc2ccccc21)C1CCCCC1 [PROTAC 9, (2S,4S)-1-((S)-2-Cyclohexyl-2-((S)-2-(methylamino)propanamido)acetyl)-4-(3-((5-(((S)-1-((2S,4R)-4-hydroxy-2-(((S)-1-(4-(4-methylthiazol-5-yl)phenyl)ethyl)carbamoyl)pyrrolidin-1-yl)-3,3-dimethyl-1-oxobutan-2-yl)amino)-5-oxopentyl)oxy)phenoxy)-N-((R)-1,2,3,4-tetrahydronaphthalen-1-yl)pyrrolidine-2-carboxamide]",IC50,"JJN3; JJN-3, MM cell line, 96 h, TNFα-challenged, read-out: IC50 cell viability JJN3",1140 nM
same,IC50,"HEL; HEL, AML cell line, 96 h, TNFα-challenged, read-out: IC50 cell viability HEL",1170 nM
same,IC50,"SUDHL4; SU-DHL-4, DLBCL cell line, 96 h, TNFα-challenged, read-out: IC50 cell viability SUDHL4",1690 nM
same,IC50,"DB; DB, DLBCL cell line, 96 h, TNFα-challenged, read-out: IC50 cell viability DB",460 nM
same,IC50,DB; [3],510 nM
same,IC50,"SUDHL6; SU-DHL-6, DLBCL cell line, 96 h, TNFα-challenged, read-out: IC50 cell viability SUDHL6",1.6 nM
same,cIAP1 level in global proteomics (in words),cIAP1 (BIRC2),below the detection level
same,logFC XIAP,XIAP [1],-1.764
same,XIAP level in global proteomics (in words),XIAP [1],below the detection level
same,remaining activity at 0.1 µM,XIAP [2]; [5],7%
same,Dmax,"XIAP [2]; MM1.S, read-out: Dmax XIAP (maximum degradation), MM.1S cells, 16 h",99%
same,Dmax XIAP (maximum degradation),"XIAP [2]; MM.1S cells, 16 h, at 0.1 μM",>99%
same,DC50,"XIAP [2]; read-out: DC50,16h XIAP, MM.1S cells, 16 h, densitometric quantification of western blots, n = 4",0.7 nM
same,remaining activity at 0.1 µM,cIAP1; [6],5%
same,Dmax,"cIAP1; MM1.S, read-out: Dmax cIAP1 (maximum degradation), MM.1S cells, 16 h",99%
same,Dmax cIAP1 (maximum degradation),"cIAP1; MM.1S cells, 16 h, at 0.1 μM",>99%
same,DC50,"cIAP1; read-out: DC50,16h cIAP1, MM.1S cells, 16 h, densitometric quantification of western blots, n = 4",2.4 nM
"CN[C@@H](C)C(=O)N[C@H](C(=O)N1C[C@@H](Oc2cccc(OCCOCCCCCCOCCCCCCNc3cccc4c3C(=O)N(C3CCC(=O)NC3=O)C4=O)c2)C[C@H]1C(=O)N[C@@H]1CCCc2ccccc21)C1CCCCC1 (stereo partly drawn) [PROTAC 25, (2S,4S)-1-((S)-2-Cyclohexyl-2-((S)-2-(methylamino)propanamido)acetyl)-4-(3-(2-((6-((6-((2-(2,6-dioxopiperidin-3-yl)-1,3-dioxoisoindolin-4-yl)amino)hexyl)oxy)hexyl)oxy)ethoxy)phenoxy)-N-((R)-1,2,3,4-tetrahydronaphthalen-1-yl)pyrrolidine-2-carboxamide]",IC50,"JJN3; JJN-3, read-out: JJN3",180 nM
same,IC50,"HEL; HEL, read-out: HEL",300 nM
same,IC50,"SUDHL4; SU-DHL-4, read-out: SUDHL4",920 nM
same,IC50,"DB; DB, read-out: DB",160 nM
same,IC50,"SUDHL6; SU-DHL-6, read-out: SUDHL6",14 nM
same,logFC BIRC2,"cIAP1 (BIRC2); 0.1 μM, log2 fold change compound vs CTRLs (limma)",-2.352
same,cIAP1 level in global proteomics (in words),cIAP1 (BIRC2),below the detection level
same,logFC XIAP,XIAP [1],-3.7
same,XIAP level in global proteomics (in words),XIAP [1],below the detection level
same,remaining activity at 0.1 µM,"XIAP [2]; MM1.S, 16 h, read-out: %remaining protein XIAP",2%
same,remaining activity at 0.1 µM,"cIAP1; MM1.S, 16 h, read-out: %remaining protein cIAP1",5%
"CN[C@@H](C)C(=O)N[C@H](C(=O)N1C[C@@H](Oc2cccc(OCCCCCCOCCCCCCOCCCCCCNc3cccc4c3C(=O)N(C3CCC(=O)NC3=O)C4=O)c2)C[C@H]1C(=O)N[C@@H]1CCCc2ccccc21)C1CCCCC1 (stereo partly drawn) [PROTAC 27, (2S,4S)-1-((S)-2-Cyclohexyl-2-((S)-2-(methylamino)propanamido)acetyl)-4-(3-((6-((6-((6-((2-(2,6-dioxopiperidin-3-yl)-1,3-dioxoisoindolin-4-yl)amino)hexyl)oxy)hexyl)oxy)hexyl)oxy)phenoxy)-N-((R)-1,2,3,4-tetrahydronaphthalen-1-yl)pyrrolidine-2-carboxamide]",cIAP1 level in global proteomics (in words),cIAP1 (BIRC2),no impact
same,XIAP level in global proteomics (in words),XIAP [1],selective XIAP degradation
same,remaining activity at 0.1 µM,XIAP [2]; [5],8%
same,remaining activity at 0.1 µM,cIAP1; [6],27%
